Here are results for 20 compounds from patent US8716287B2, “Pharmaceutical compounds” (Sentinel Oncology Limited, priority 2010, dated 2014).

The test system of one data set is HT29 cells. In words: Sensitisation of HT29 cells to SN38 (Alamar blue cell growth). It is filed as cell-based, human. The following applies: for fold shift in the IC50 value of SN38: HT29 cells; for Cell potentiation factor: SN38 sensitisation assay in HT-29 cells. As for the experimental part: Studies were carried out to test the sensitising effect of compounds of the invention on the ability of the DNA damaging compound 7-ethyl-10-hydroxycamptothecin (SN38), an active metabolite of the anti-cancer drug irinotecan, to inhibit cell growth in HT29 cells.
The following protocol was used:
(a) HT29 cells were seeded in 96-well plates at a concentration of 3000 cells per well and allowed to adhere overnight prior to addition of compound or vehicle control.
(b) SN38 was prepared from a 10 mM DMSO stock to give a final concentration range of 1 μM, 300 nM, 100 nM, 30 nM, 10 nM, 3 nM, 1 nM, and vehicle control.
(c) Test compounds were prepared from 10 mM DMSO stocks to typically give a final concentration range of 3 μM, 1 μM, 0.3 μM. 0.1 μM, 0.03 μM and vehicle control. The final DMSO content was 0.4%.
(d) Test compounds were incubated with the cells for 72 h at 37° C. 5% CO2 in a humidified atmosphere.
(e) Alamar blue 10% (v/v) was then added and incubated for a further 6 h, and fluorescent product detected using the BMG FLUOstar plate reader.
(f) Data were analysed using a 4-parameter logistic equation in GraphPad Prism.
Sensitisation is determined by the enhancement in IC50 of SN38 by the addition of the Chk-1 kinase inhibitor. In the protocol described above, the IC50 for SN-38 is determined the presence of varying doses of the Chk-1 inhibitor. The fold shift represents a decrease in IC50 for SN-38 at a dose of Chk-1 inhibitor that has no effect by itself.
A general note: Alamar Blue is a resazurin reagent that responds to reducing activity.

A further data set has as its target Chk-1 kinase (Homo sapiens (Human), UniProt O14757). Kind of data set: Chk-1 kinase inhibiting activity (33P-ATP filter assay, CHKtide substrate). It is filed as biochemical. As for the experimental part: The compounds of the invention were tested for activity against Chk-1 kinase using the materials and protocols set out below.
Base Reaction buffer: 20 mM Hepes (pH 7.5), 10 mM MgCl2, 1 mM EGTA, 0.02% Brij35, 0.02 mg/ml BSA, 0.1 mM Na3VO4, 2 mM DTT, 1% DMSO
*Required cofactors are added individually to each kinase reaction
(i) Prepare indicated substrate in freshly prepared Base Reaction Buffer
(ii) Deliver any required cofactors to the substrate solution above
(iii) Deliver indicated kinase into the substrate solution and gently mix
(iv) Deliver compounds in DMSO into the kinase reaction mixture
(v) Deliver ^33P-ATP (specific activity 0.01 μCi/μl final) into the reaction mixture to initiate the reaction.
(vi) Incubate kinase reaction for 120 minutes at room temperature
(vii) Reactions are spotted onto P81 ion exchange paper (Whatman #3698-915)
(viii) Wash filters extensively in 0.1% phosphoric acid.
(ix) Dry filters and measure counts in scintillation counter
Recombinant full length construct, N-terminal GST tagged, purified from insect cells.
No special measures were taken to activate this kinase.
Final concentration in assay=0.5 nM
Peptide sequence: [[…]]
Final concentration in assay=20 μM
No additional cofactors are added to the reaction mixture

The mark [1] stands for this setting: Chk-1 kinase, Table 3, read-out: IC50.
[2] abbreviates: ranges given, read-out: IC50 values against Chk-1 kinase.

For orientation: IC50 means the concentration at which inhibition is half-maximal.

“Also recorded” adds a separate entry of the source. Structures can show the parent of a compound that is named as a salt. Where two headings read alike, the source gives them in different places.

Sequence of Chk-1 kinase (O14757 whole entry): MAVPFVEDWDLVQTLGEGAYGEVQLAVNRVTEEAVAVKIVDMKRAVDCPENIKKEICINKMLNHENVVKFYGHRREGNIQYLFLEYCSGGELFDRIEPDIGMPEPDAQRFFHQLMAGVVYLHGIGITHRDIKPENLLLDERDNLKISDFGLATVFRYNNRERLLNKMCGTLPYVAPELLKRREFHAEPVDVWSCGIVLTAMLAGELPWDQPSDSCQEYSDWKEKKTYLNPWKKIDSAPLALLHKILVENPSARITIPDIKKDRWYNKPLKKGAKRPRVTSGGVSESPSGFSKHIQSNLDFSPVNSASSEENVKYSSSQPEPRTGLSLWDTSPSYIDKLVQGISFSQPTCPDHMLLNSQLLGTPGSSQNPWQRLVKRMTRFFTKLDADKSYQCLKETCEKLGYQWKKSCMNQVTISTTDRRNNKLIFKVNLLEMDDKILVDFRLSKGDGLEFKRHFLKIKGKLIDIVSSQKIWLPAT

Take `N#Cc1cnc(NC(=O)Nc2ccc(CCNCCc3ccc(F)cc3)c(Cl)c2)cn1` [Example 7, 1-(3-Chloro-4-(2-(4-fluorophenethylamino)ethyl)phenyl)-3-(5-cyanopyrazin-2-yl)urea]: the “fold shift in the IC50 value of SN38” value with HT29 cells (test compound at 1 μM) is listed as “two”. The IC50 was 16 nM at Chk-1 kinase (setting [1]) and 10 to 100 nM on Chk-1 kinase (setting [2]).
As to `N#Cc1cnc(NC(=O)Nc2ccc(CCNCc3ccc(Cl)cc3)c(Cl)c2)cn1` [Example 8, 1-{3-Chloro-4-[2-(4-chloro-benzylamino)-ethyl]-phenyl}-3-(5-cyano-pyrazin-2-yl)-urea], the “fold shift in the IC50 value of SN38” value in the data set on HT29 cells (test compound at 3 μM) was “three; also recorded: greater than ten”. Besides, the IC50 on Chk-1 kinase (setting [1]) is 11 nM; at Chk-1 kinase (setting [2]), 10 to 100 nM.
The corresponding values for `N#Cc1cnc(NC(=O)Nc2ccc(CCNCc3cccc(F)c3)c(Cl)c2)cn1` [Example 9, 1-{3-Chloro-4-[2-(3-fluoro-benzylamino)-ethyl]-phenyl}-3-(5-cyano-pyrazin-2-yl)-urea] are “three; also recorded: greater than ten”, 2 nM and less than 10 nM.
On the same counts, the results for `N#Cc1cnc(NC(=O)Nc2ccc(CCNCc3ccccc3Cl)c(Cl)c2)cn1` [Example 10, 1-{3-Chloro-4-[2-(2-chloro-benzylamino)-ethyl]-phenyl}-3-(5-cyano-pyrazin-2-yl)-urea] are “three”, 62 nM and 10 to 100 nM.
On the same counts, the results for `CN(CCc1ccc(NC(=O)Nc2cnc(C#N)cn2)cc1Cl)Cc1ccc(F)cc1` [Example 11, 1-(3-Chloro-4-{2-[(4-fluoro-benzyl)-methyl-amino]-ethyl}-phenyl)-3-(5-cyano-pyrazin-2-yl)-urea] are “three”, 146 nM and 100 to 1000 nM.
On to `COc1cccc(CNCCc2ccc(NC(=O)Nc3cnc(C#N)cn3)cc2Cl)c1` [Example 12, 1-{3-Chloro-4-[2-(3-methoxy-benzylamino)-ethyl]-phenyl}-3-(5-cyano-pyrazin-2-yl)-urea], for which, in the data set on HT29 cells (test compound at 3 μM), the “fold shift in the IC50 value of SN38” value is recorded as “three; also recorded: greater than ten”. The IC50 at Chk-1 kinase (setting [1]) was 11 nM; at Chk-1 kinase (setting [2]), 10 to 100 nM.
As to `N#Cc1cnc(NC(=O)Nc2ccc(CCNCc3cccc(Cl)c3)c(Cl)c2)cn1` [Example 13, 1-{3-Chloro-4-[2-(3-chloro-benzylamino)-ethyl]-phenyl}-3-(5-cyano-pyrazin-2-yl)-urea hydrochloride], the “fold shift in the IC50 value of SN38” value in the data set on HT29 cells (test compound at 1 μM) is on record as “two”. Further, the results for the IC50 at Chk-1 kinase (setting [1]) and at Chk-1 kinase (setting [2]) were 37 nM and 10 to 100 nM, respectively.
For `N#Cc1cnc(NC(=O)Nc2ccc(CCNCc3ccc(OC(F)(F)F)cc3)c(Cl)c2)cn1` [Example 14, 1-{3-Chloro-4-[2-(4-trifluoromethoxy-benzylamino)-ethyl]-phenyl}-3-(5-cyano-pyrazin-2-yl)-urea], the “fold shift in the IC50 value of SN38” value in the data set with HT29 cells (test compound at 3 μM) is listed as “three”. Moreover, the IC50 is 68 nM on Chk-1 kinase (setting [1]) and 10 to 100 nM on Chk-1 kinase (setting [2]).
Regarding `COc1ccc(CNCCc2ccc(NC(=O)Nc3cnc(C#N)cn3)cc2Cl)cc1` [Example 15, 1-{3-Chloro-4-[2-(4-methoxy-benzylamino)-ethyl]-phenyl}-3-(5-cyano-pyrazin-2-yl)-urea], in the data set on HT29 cells (test compound at 3 μM), the “fold shift in the IC50 value of SN38” value is “three; also recorded: greater than ten”. In addition, the values for the IC50 at Chk-1 kinase (setting [1]) and at Chk-1 kinase (setting [2]) were 3.5 nM and less than 10 nM, respectively.
For the compound `COc1ccccc1CNCCc1ccc(NC(=O)Nc2cnc(C#N)cn2)cc1Cl` [Example 16, 1-{3-Chloro-4-[2-(2-methoxy-benzylamino)-ethyl]-phenyl}-3-(5-cyano-pyrazin-2-yl)-urea], the “fold shift in the IC50 value of SN38” value in the data set with HT29 cells (test compound at 1 μM) was “two”. Also, the results for the IC50 on Chk-1 kinase (setting [1]) and on Chk-1 kinase (setting [2]) were 13 nM and 10 to 100 nM, respectively.
In the case of `N#Cc1cnc(NC(=O)Nc2ccc(CCNCc3ccc(C(F)(F)F)cc3)c(Cl)c2)cn1` [Example 17, 1-{3-Chloro-4-[2-(4-trifluoromethyl-benzylamino)-ethyl]-phenyl}-3-(5-cyano-pyrazin-2-yl)-urea hydrochloride], the “fold shift in the IC50 value of SN38” value with HT29 cells (test compound at 1 μM) was “two”. Besides, the IC50 is 78 nM at Chk-1 kinase (setting [1]) and 10 to 100 nM at Chk-1 kinase (setting [2]).
As for `C[C@H](NCCc1ccc(NC(=O)Nc2cnc(C#N)cn2)cc1Cl)c1ccc(F)cc1` [Example 18, 1-(3-Chloro-4-{2-[(S)-1-(4-fluoro-phenyl)-ethylamino]-ethyl}-phenyl)-3-(5-cyano-yrazin-2-yl)-urea hydrochloride], the “fold shift in the IC50 value of SN38” value in the data set on HT29 cells (test compound at 1 μM) is “two”. Further, the IC50 at Chk-1 kinase (setting [1]) is 21 nM; at Chk-1 kinase (setting [2]), 10 to 100 nM.
On to `COc1cc(CCNCc2cccc(F)c2)c(Cl)cc1NC(=O)Nc1cnc(C#N)cn1` [Example 19, 1-{5-Chloro-4-[2-(3-fluoro-benzylamino)-ethyl]-2-methoxy-phenyl}-3-(5-cyano-pyrazin-2-yl)-urea hydrochloride], for which the Cell potentiation factor with HT29 cells (compound at 3 μM) is recorded as 50 fold. Moreover, the IC50 is 1.2 nM at Chk-1 kinase (setting [1]); 8 nM on Chk-1 kinase (comparative tests, Example 70, read-out: Chk-1 IC50); less than 10 nM on Chk-1 kinase (setting [2]).
Take `N#Cc1cnc(NC(=O)Nc2ccc(CCNCc3ccccc3F)c(Cl)c2)cn1` [Example 23, 1-{3-Chloro-4-[2-(2-fluoro-benzylamino)-ethyl]-phenyl}-3-(5-cyano-pyrazin-2-yl)-urea]: the “fold shift in the IC50 value of SN38” value in the data set on HT29 cells (test compound at 3 μM) was “three; also recorded: greater than ten”. Besides, the concentration for half-maximal inhibition (IC50) at Chk-1 kinase (setting [1]) was 11 nM; at Chk-1 kinase (setting [2]) it was 10 to 100 nM.
`N#Cc1cnc(NC(=O)Nc2ccc(OCCNCc3ccc(F)cc3)c(Cl)c2)cn1` [Example 26, 1-{3-Chloro-4-[2-(4-fluoro-benzylamino)-ethoxy]-phenyl}-3-(5-cyano-pyrazin-2-yl)-urea]: the “fold shift in the IC50 value of SN38” value with HT29 cells (test compound at 3 μM) is “three”. Besides, the figures for the IC50 at Chk-1 kinase (setting [1]) and on Chk-1 kinase (setting [2]) were 21 nM and 10 to 100 nM, respectively.
The corresponding values for `COc1cc(CCNCc2ccc(F)cc2)ccc1NC(=O)Nc1cnc(C)cn1` [Example 27, 1-{4-[2-(4-Fluoro-benzylamino)-ethyl]-2-methoxy-phenyl}-3-(5-methyl-pyrazin-2-yl)-urea hydrochloride] are “three”, 33 nM and 10 to 100 nM.
With `N#Cc1cnc(NC(=O)Nc2ccc(CNCc3ccccc3)cc2)cn1` [Example 29, 1-[4-(Benzylamino-methyl)-phenyl]-3-(5-cyano-pyrazin-2-yl)-urea], the “fold shift in the IC50 value of SN38” value with HT29 cells (test compound at 10 μM) is recorded as “four”. Besides, the Cell potentiation factor in the data set on HT29 cells (compound at 10 μM) turned out to be 4 fold. In addition, the IC50 at Chk-1 kinase (setting [1]) was 320 nM; at Chk-1 kinase (setting [2]), 100 to 1000 nM.
For `COc1cc(CCNCCc2ccc(F)cc2)ccc1NC(=O)Nc1cnc(C#N)cn1` [Example 31, 1-(5-Cyano-pyrazin-2-yl)-3-(4-{2-[2-(4-fluoro-phenyl)-ethylamino]-ethyl}-2-methoxy-phenyl)-urea], the “fold shift in the IC50 value of SN38” value with HT29 cells (test compound at 3 μM) is reported as “three”. Moreover, the figures for the IC50 on Chk-1 kinase (setting [1]) and at Chk-1 kinase (setting [2]) were 2.7 nM and less than 10 nM, respectively.
Turning to `N#Cc1cnc(NC(=O)Nc2cccc(CCNCc3ccc(F)cc3)c2)cn1` [Example 34, 1-(5-Cyano-pyrazin-2-yl)-3-{3-[2-(4-fluoro-benzylamino)-ethyl]-phenyl}-urea], in the data set on HT29 cells (test compound at 3 μM), the “fold shift in the IC50 value of SN38” value is “three”. For the same compound, at Chk-1 kinase (setting [1]), the IC50 turned out to be 69 nM.
For `N#Cc1cnc(NC(=O)Nc2ccc(CCNCc3cccc(N4CCOCC4)c3)c(Cl)c2)cn1` [Example 39, 1-{3-Chloro-4-[2-(3-morpholin-4-yl-benzylamino)-ethyl]-phenyl}-3-(5-cyano-pyrazin-2-yl)-urea], in the data set with HT29 cells (test compound at 3 μM), the “fold shift in the IC50 value of SN38” value was “three”. In addition, the IC50 on Chk-1 kinase (setting [1]) is 12 nM.
